These are literature values, as cited in paper PMC7744997 (Clinical Infectious Diseases: An Official Publication of …, 2020).

In the series the test system is RSV. To be noted: cited from earlier work.

On to `Cc1cn2nc([C@@H]3CCCCN3C(=O)c3cc(Cl)ccc3NS(C)(=O)=O)cc2nc1N1CC[C@H](N)C1` [presatovir], for which the “Outcome on viral load endpoints in clinical studies” value is “failure to meet viral load endpoints”. Consider `Cc1ccc([C@]23Cn4cccc4C(=O)N2CCN3C(=O)c2conc2C)cn1` [BTA-C585], for which the “Outcome on viral load endpoints in clinical studies” value is “failure to meet viral load endpoints”.
